Test results: PubChem BioAssay (NCI)
“And” between values parts separate entries of the source, which are not always exact repeats. Equal values may be shown once.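 Cultured in 96-well plates, cells were exposed to test compound for 48 hours across five concentrations. GI50 is the concentration that inhibits growth by half. TGI marks complete inhibition of growth.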

Experiments:
Assay in all cases: inhibition of tumour cell growth, NCI panel, 48 h
[1] = test system: OVCAR-3 ovarian
[2] = test system: SF-295 CNS
[3] = test system: UACC-62 melanoma
[4] = test system: PC-3 prostate
[5] = test system: LOX IMVI melanoma
[6] = test system: NCI-H460 lung
[7] = test system: A498 renal
[8] = test system: SF-268 CNS
[9] = test system: COLO 205 colon
[10] = test system: SR leukemia

Row | Compound | GI50 [1] [µM] | TGI [1] [µM] | GI50 [2] [µM] | GI50 [3] [µM] | TGI [3] | GI50 [4] [µM] | TGI [5] [µM] | GI50 [6] [µM] | TGI [6] | GI50 [7] [µM] | GI50 [8] [µM] | GI50 [9] [µM] | TGI [9] | GI50 [10] [µM] | TGI [10] [µM] | TGI [2] [µM] | TGI [4] [µM] | GI50 [5] [µM] | TGI [7] [µM] | TGI [8] [µM]
1 | CC[C@@]1(O)C[C@H](OC2CC(N(C)C)C(O)C(C)O2)c2c(O)c3c(c(O)c2[C@H]1OC1CC(N(C)C)C(O)C(C)O1)C(=O)c1cccc(O)c1C3=O (stereo not given in full) | < 0.01 | < 0.01 | < 0.01 | < 0.01 | 0.0711 µM and < 0.01 µM | < 0.01 | 0.0923 | < 0.01 | 0.304 µM and 0.662 µM | < 0.01 | < 0.01 | < 0.01 | 0.149 µM and 0.0297 µM | < 0.01 | 0.0273 | – | – | – | – | –
2 | CC/C=C\CCC/C=C1/C(=O)C=C[C@@H]1C/C=C\CCCC(=O)OC | 3.39 | 11.8 | 3.1 | 2.57 | 6.49 µM | 3.14 | 3.28 | 3.9 | 14.2 µM | 19.8 | 4.79 | 4.1 | 12.5 µM | 2.73 | 9.22 | 8.75 | 8.11 | 1.59 | 34.7 | 22.1
3 | COc1ccc(-c2nc3sccn3c2/C(N)=N/C(=N)N)cc1OC | 31.8 | > 100 | 30.5 | 66 | > 100 µM | 34.3 | > 100 | 46.7 | > 100 µM | > 100 | 50.3 | 56.6 | > 100 µM | 30.5 | 77.3 | 87.1 | > 100 | 37.5 | > 100 | > 100
4 | Cn1cnc([N+](=O)[O-])c1Sc1nnc(-c2cccnc2)n1C | – | 35.1 | – | – | 32.6 µM | – | 34.9 | – | > 100 µM | – | – | – | 28.9 µM | – | 45.5 | > 100 | > 57.9 | – | > 100 | > 95.7
5 | COC1=CC(=O)c2nc(-c3ccncc3)[nH]c2C1=O | > 100 | > 100 | > 100 | > 100 | > 100 µM | > 100 | > 100 | > 100 | > 100 µM | > 100 | > 100 | > 100 | > 100 µM | > 100 | > 100 | > 100 | > 100 | > 100 | > 100 | > 100
6 | O=C1/C(=C/c2cccc([N+](=O)[O-])c2)COc2ccc(O)cc21 | 1.71 | 3.13 | 6.94 | 1.92 | 4.03 µM | 2.15 | 2.92 | 2.69 | 6.65 µM | 3.35 | 2.86 | 1.58 | 3.27 µM | 0.278 | 1.18 | 19.8 | 5.45 | 1.49 | 13.4 | 10.3
7 | COc1cc(CNc2cnc3cc(N)cc(N)c3n2)cc(OC)c1 | 19.6 | 48.3 | 26.5 | – | – | 15.1 | – | 54.4 | > 100 µM | – | 15.8 | – | – | 18.8 | > 100 | 71.9 | 35.2 | – | – | 37.7
8 | Cc1ccc2c(=O)cc(-c3ccc(F)cc3)[nH]c2n1 | 32.2 | > 100 | 36.8 | – | > 100 µM | 20.9 | > 100 | 33.6 | > 100 µM | – | – | – | 47.9 µM | – | 34.4 | > 100 | 88.1 | – | 66.6 | > 100
9 | O=C1C(Cl)=C(Nc2cccc(Cl)c2)C(=O)N1Cc1ccc(Cl)cc1Cl | 11.1 | 24.8 | 4.22 | 0.446 | 4.83 µM | 2.94 | 11.5 | 2.68 | 21 µM | 0.771 | 1.37 | 1 | 16 µM | – | 8.9 | 33.4 | > 50.3 | < 0.0316 | 7.12 | 25
10 | O=C(/C=C/C12c3ccccc3C(c3ccccc31)C1C(=O)NC(=O)C12)c1ccncc1 (stereo not given) | 2.34 | 5.96 | 2.59 | 1.87 | 3.88 µM | 1.97 | 3.51 | 2.16 | 4.76 µM | 14.1 | 2.46 | 3.57 | 9.43 µM | 1.76 | 7.34 | 7.54 | 5.4 | 1.68 | 28.3 | 8.48
11 | CC1(C)CCc2c(c3c(c4c(=O)c(O)c(-c5ccc(O)cc5)oc24)OC(C)(C)CC3)O1 | 49.9 | > 100 | 34.3 | > 100 | > 100 µM | > 100 | > 100 | 48.7 | > 100 µM | – | 30.5 | > 100 | > 100 µM | > 100 | > 100 | > 100 | > 100 | 90.5 | – | > 100
12 | CC12CCC(O)CC1CCC1C2CCC2(C)C(C3=CC(=O)OC3)CCC12O (stereo not given) | – | 10.3 | – | – | 12.8 µM | – | 10.6 | – | 3.99 µM | – | – | – | 12.2 µM | – | > 100 | 10.8 | 13.1 | – | 25.6 | 7.07
13 | Cc1coc2c1CC1(C)C(CCC(O)C1C)C2 (stereo not given) | – | > 100 | – | – | > 100 µM | – | > 100 | – | > 100 µM | – | – | – | > 100 µM | – | > 100 | > 100 | > 100 | – | > 100 | > 100
14 | COc1ccc2c(c1)/C(=C/c1c(C)nc3sc(C)nn13)C(=O)N2 | 0.959 | 37.9 | 1.48 | 6.24 | > 100 µM | 2.48 | > 100 | 1.09 | > 32.6 µM | 3.07 | 3.06 | 0.614 | 4.96 µM | 0.31 | – | 50.3 | > 100 | 5.49 | > 50 | > 50.5
15 | C#Cc1ccc(-n2c(/C=C/c3ccc(C(F)(F)F)cc3)nc3ncccc3c2=O)cc1 | 1.67 | 3.17 | – | 1.62 | 3.61 µM | 1.96 | 4.29 | 1.98 | 4.13 µM | 2.34 | 2.27 | 2.23 | 4.48 µM | 2 | 8.08 | – | 6.31 | 1.89 | 5.76 | 5.95
16 | O=C1c2ccccc2C2C1N2C(=O)C(F)(F)F (stereo not given) | – | > 100 | – | – | > 100 µM | – | > 100 | – | > 100 µM | – | – | – | > 100 µM | – | > 100 | > 100 | – | – | > 100 | > 100
17 | CC1=C(C(=O)Nc2ccc(Cl)c(Cl)c2)C(c2cccc(Oc3ccccc3)c2)NC(=S)N1 (stereo not given) | 1.87 | 8.15 | 8.15 | 7.81 | 14.6 µM | 9.71 | 14.7 | 7.57 | 14.4 µM | – | 6.1 | 9.38 | 21.1 µM | 44.9 | > 50 | 15.3 | 29.1 | 7.48 | – | 12.9
18 | O=C1C2C(C(=O)N1OS(=O)(=O)c1ccccc1)N(Cc1ccccc1)C(=O)N2Cc1ccccc1 (stereo not given) | – | > 100 | – | – | > 100 µM | – | > 100 | – | > 100 µM | – | – | – | > 100 µM | – | > 100 | > 100 | – | – | > 100 | > 100
19 | CN(C)CC[N+]1=Nc2cccc3cccc(c23)N1 | – | > 100 | – | – | > 100 µM | – | > 63.7 | – | > 64.8 µM | – | – | – | > 71.2 µM | – | 40.9 | > 100 | – | – | > 100 | > 100
20 | CO[C@H](C(=O)[C@@H](O)[C@@H](C)O)[C@@H]1Cc2cc3cc(O[C@H]4C[C@@H](O[C@H]5C[C@@H](O)[C@H](O)C(C)O5)[C@H](O)C(C)O4)c(C)c(O)c3c(O)c2C(=O)[C@H]1O[C@H]1C[C@@H](O[C@H]2C[C@@H](O[C@H]3C[C@](C)(O)C(=O)C(C)O3)[C@@H](O)C(C)O2)[C@H](O)C(C)O1 (stereo not given in full) | 0.0907 | 3.54 | 0.0828 | 0.0187 | 0.102 µM | 0.151 | – | 0.0323 | > 33.2 µM | 0.0185 | 0.065 | 0.053 | 0.459 µM | 0.0385 | > 33.2 | 6.12 | 32.2 | – | 0.147 | > 33.2
21 | O=C1/C(=C/c2ccccc2)CN(C(=O)C(Cl)(Cl)Cl)C/C1=C\c1ccccc1 | – | 7.88 | – | – | 3.43 µM | – | 2.18 | – | 4.17 µM | – | – | – | 4.69 µM | – | 7.1 | 3.24 | – | – | 13.7 | 13.4
22 | O=C1C(=O)N(c2ccc(Cl)cc2Cl)C(=O)C(=O)C1c1nc2ccccc2s1 | – | > 100 | – | – | > 100 µM | – | > 100 | – | > 100 µM | – | – | – | > 100 µM | – | 79.2 | > 100 | – | – | > 100 | > 100
23 | C=C1C(=O)C23CC1CCC2C12CO[C@@H]4OCC(C)(CC[C@@H]1OC3=O)C42 (stereo not given in full) | – | 16.6 | – | – | 17.3 µM | – | 3.44 | – | 17.5 µM | – | – | – | 4.34 µM | – | 26.4 | 30.9 | – | – | 34.8 | 12.7
